Experimental data taken from patent publication US20250074888A1, “PYRIDAZINE DERIVATIVES AS MODULATORS OF NLRP3 INFLAMMASOME AND RELATED METHODS” (Neumora Therapeutics, Inc., priority 2021, published 2025).

Assays:
IL-6 = IL-6 release from LPS-primed, nigericin-treated THP1 macrophages, Hu IL-6 AlphaLISA; format: cell-based; conditions: Homo sapiens, THP-1; PMA-differentiated THP1, LPS 20 ng/ml 3 hrs, compound 1 hr, Nigericin 6.7 uM 3 hrs, supernatant
NLRP3 inflammasome = NLRP3 inflammasome (Homo sapiens, UniProt Q96P20); test: NLRP3 inflammasome activation in THP1 macrophages (LPS priming, nigericin), IL-1β AlphaLISA; format: cell-based; conditions: PMA-differentiated THP1, LPS 20 ng/ml 3 hrs, compound 1 hr, Nigericin 6.7 uM 3 hrs, supernatant
Sequence of NLRP3 inflammasome (Q96P20 whole entry): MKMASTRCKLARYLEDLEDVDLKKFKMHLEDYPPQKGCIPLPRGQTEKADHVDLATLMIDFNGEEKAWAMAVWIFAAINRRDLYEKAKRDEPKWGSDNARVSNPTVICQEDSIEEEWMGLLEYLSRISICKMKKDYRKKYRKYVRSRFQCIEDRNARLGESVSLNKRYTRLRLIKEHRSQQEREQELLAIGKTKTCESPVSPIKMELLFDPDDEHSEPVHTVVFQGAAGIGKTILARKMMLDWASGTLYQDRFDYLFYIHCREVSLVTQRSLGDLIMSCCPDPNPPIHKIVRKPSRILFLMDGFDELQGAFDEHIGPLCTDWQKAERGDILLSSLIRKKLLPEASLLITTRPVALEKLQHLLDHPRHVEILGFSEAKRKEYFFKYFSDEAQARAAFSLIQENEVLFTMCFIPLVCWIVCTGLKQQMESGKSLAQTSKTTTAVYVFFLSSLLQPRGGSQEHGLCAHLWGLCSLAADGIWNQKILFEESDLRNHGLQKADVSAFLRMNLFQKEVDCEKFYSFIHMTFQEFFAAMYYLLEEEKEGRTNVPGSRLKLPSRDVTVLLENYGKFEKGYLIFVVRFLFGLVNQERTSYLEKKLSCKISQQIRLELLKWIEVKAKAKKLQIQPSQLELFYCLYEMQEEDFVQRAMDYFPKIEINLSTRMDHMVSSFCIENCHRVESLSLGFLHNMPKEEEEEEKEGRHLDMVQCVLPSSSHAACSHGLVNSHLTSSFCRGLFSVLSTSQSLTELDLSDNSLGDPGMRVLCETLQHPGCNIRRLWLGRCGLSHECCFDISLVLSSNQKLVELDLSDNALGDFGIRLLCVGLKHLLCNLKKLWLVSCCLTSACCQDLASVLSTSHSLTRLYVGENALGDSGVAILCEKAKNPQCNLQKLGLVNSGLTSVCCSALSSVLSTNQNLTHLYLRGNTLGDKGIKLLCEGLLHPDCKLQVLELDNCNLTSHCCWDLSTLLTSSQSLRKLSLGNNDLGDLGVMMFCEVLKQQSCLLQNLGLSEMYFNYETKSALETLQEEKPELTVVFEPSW

Cc1cc(N[C@@H]2CCCN(C)C2)nnc1-c1ccc(Cl)c(F)c1 [compound 145]
IC50 (IL-6): > 10000 nM
IC50 (NLRP3 inflammasome): 50 to 100 nM

CCN1C[C@H](F)C[C@@H](Nc2cc(C)c(-c3ccc(C(F)(F)F)cc3)nn2)C1 [compound 146]
IC50 (IL-6): 5000 to 10000 nM
IC50 (NLRP3 inflammasome): ≤ 10 nM

Cc1cc(-c2ccc(Cl)c(F)c2)nnc1N[C@@H]1CCCN(C)C1 [compound 147]
IC50 (IL-6): 5000 to 10000 nM
IC50 (NLRP3 inflammasome): > 1000 nM

CN1CCC[C@@H](Nc2nnc(-c3ccc(F)cc3)cc2C(F)(F)F)C1 [compound 148]
IC50 (IL-6): > 10000 nM
IC50 (NLRP3 inflammasome): > 1000 nM

Cc1cc(-c2ccc(Cl)cc2F)nnc1N[C@@H]1CCCN(C)C1 [compound 149]
IC50 (IL-6): 5000 to 10000 nM
IC50 (NLRP3 inflammasome): 100 to 500 nM

CCN1C[C@H](F)C[C@@H](Nc2cc(C)c(-c3ccc(F)cc3)nn2)C1 [compound 150]
IC50 (IL-6): > 10000 nM
IC50 (NLRP3 inflammasome): > 1000 nM

CCN1C[C@H](F)C[C@@H](Nc2cc(C)c(-c3ccc(Cl)cc3)nn2)C1 [compound 151]
IC50 (IL-6): 1000 to 5000 nM
IC50 (NLRP3 inflammasome): > 1000 nM

Cc1cc(N[C@@H]2C[C@@H](F)CN(C(C)C)C2)nnc1-c1ccc(Cl)cc1 [compound 152]
IC50 (IL-6): > 10000 nM
IC50 (NLRP3 inflammasome): 10 to 50 nM

Cc1cc(N[C@@H]2CCCN(C)C2)nnc1-c1ccc(Cl)cc1F [compound 153]
IC50 (IL-6): 5000 to 10000 nM
IC50 (NLRP3 inflammasome): > 1000 nM

Cc1cc(F)ccc1-c1cc(F)c(N[C@@H]2CCCN(C)C2)nn1 [compound 154]
IC50 (IL-6): > 10000 nM
IC50 (NLRP3 inflammasome): 100 to 500 nM

CCN1CCC[C@@H](Nc2cc(C)c(-c3ccc(Cl)cc3)nn2)C1 [compound 155]
IC50 (IL-6): > 10000 nM
IC50 (NLRP3 inflammasome): ≤ 10 nM

Cc1cc(N[C@@H]2CCCN(C(C)C)C2)nnc1-c1ccc(Cl)cc1 [compound 156]
IC50 (IL-6): > 10000 nM
IC50 (NLRP3 inflammasome): ≤ 10 nM

Cc1cc(N[C@@H]2CCCN(C)C2)nnc1-c1ccc(C(F)F)cc1 [compound 157]
IC50 (IL-6): > 10000 nM
IC50 (NLRP3 inflammasome): 10 to 50 nM

Cc1cc(C(F)(F)F)ccc1-c1cc(O)c(N[C@@H]2CCCN(C)C2)nn1 [compound 158]
IC50 (IL-6): 5000 to 10000 nM
IC50 (NLRP3 inflammasome): 100 to 500 nM

Cc1cc(N[C@@H]2CCCN(C)C2)nnc1-c1ccccc1C(F)F [compound 159]
IC50 (IL-6): 5000 to 10000 nM
IC50 (NLRP3 inflammasome): 500 to 1000 nM

Cc1cc(-c2ccccc2C(F)F)nnc1N[C@@H]1CCCN(C)C1 [compound 160]
IC50 (IL-6): 1000 to 5000 nM
IC50 (NLRP3 inflammasome): 500 to 1000 nM

Cc1c(-c2ccc(N[C@@H]3CCCN(C)C3)nn2)ccc(C(F)(F)F)c1C [compound 161]
IC50 (IL-6): > 10000 nM
IC50 (NLRP3 inflammasome): 100 to 500 nM

Cc1cc(-c2nnc(N[C@@H]3CCCN(C)C3)cc2C)ccc1Cl [compound 162]
IC50 (IL-6): > 10000 nM
IC50 (NLRP3 inflammasome): 10 to 50 nM

Cc1cc(-c2cc(C)c(N[C@@H]3CCCN(C)C3)nn2)ccc1Cl [compound 163]
IC50 (IL-6): > 10000 nM
IC50 (NLRP3 inflammasome): > 1000 nM

COc1cc(F)cc(C)c1-c1ccc(N[C@@H]2CCCN(C)C2)nn1 [compound 164]
IC50 (IL-6): > 10000 nM
IC50 (NLRP3 inflammasome): > 1000 nM

Cc1cc(N[C@@H]2CCCN(C)C2)nnc1-c1ccc(C(F)(F)F)cc1C(F)F [compound 165]
IC50 (IL-6): > 10000 nM
IC50 (NLRP3 inflammasome): ≤ 10 nM

Cc1cc(-c2ccc(C(F)(F)F)cc2C(F)F)nnc1N[C@@H]1CCCN(C)C1 [compound 166]
IC50 (IL-6): > 10000 nM
IC50 (NLRP3 inflammasome): 10 to 50 nM

CCN(c1cc(C)c(-c2ccc(C(F)(F)F)cc2)nn1)[C@@H]1CCCN(C)C1 [compound 167]
IC50 (IL-6): > 10000 nM
IC50 (NLRP3 inflammasome): 100 to 500 nM

Cc1cc(N[C@@H]2CCCN(C)C2)nnc1-c1ccc(Cl)cc1C#N [compound 168]
IC50 (IL-6): 5000 to 10000 nM
IC50 (NLRP3 inflammasome): 10 to 50 nM

Cc1cc(N[C@@H]2CCCN(C)C2)nnc1-c1ccc(Cl)cc1C(F)(F)F [compound 169]
IC50 (IL-6): > 10000 nM
IC50 (NLRP3 inflammasome): 10 to 50 nM

Cc1cc(-c2ccc(Cl)cc2C(F)(F)F)nnc1N[C@@H]1CCCN(C)C1 [compound 170]
IC50 (IL-6): > 10000 nM
IC50 (NLRP3 inflammasome): 10 to 50 nM

Cc1cc(N[C@@H]2CCCN(C)C2)nnc1-c1ccc(Cl)cc1Cl [compound 171]
IC50 (IL-6): > 10000 nM
IC50 (NLRP3 inflammasome): ≤ 10 nM

COc1cc(N[C@@H]2CCCN(C)C2)nnc1-c1ccc(C(F)(F)F)cc1C [compound 172]
IC50 (IL-6): > 10000 nM
IC50 (NLRP3 inflammasome): > 1000 nM

Cc1cc(-c2ccc(Cl)cc2C#N)nnc1N[C@@H]1CCCN(C)C1 [compound 173]
IC50 (IL-6): > 10000 nM
IC50 (NLRP3 inflammasome): > 1000 nM

Cc1cc(N[C@@H]2CCCN(C)C2)nnc1-c1ccc(Cl)cc1C(F)F [compound 174]
IC50 (IL-6): 5000 to 10000 nM
IC50 (NLRP3 inflammasome): ≤ 10 nM

Cc1cc(-c2ccc(Cl)cc2C(F)F)nnc1N[C@@H]1CCCN(C)C1 [compound 175]
IC50 (IL-6): > 10000 nM
IC50 (NLRP3 inflammasome): ≤ 10 nM

Cc1cc(N[C@@H]2CCCCN(C)C2)nnc1-c1ccc(C(F)(F)F)cc1 [compound 176]
IC50 (IL-6): > 10000 nM
IC50 (NLRP3 inflammasome): 50 to 100 nM

Cc1cc(O[C@@H]2CCCN(C)C2)nnc1-c1ccc(C(F)(F)F)cc1 [compound 177, (R)-4-methyl-6-((1-methylpiperidin-3-yl)oxy)-3-(4-(trifluoromethyl)phenyl)pyridazine]
IC50 (IL-6): > 10000 nM
IC50 (NLRP3 inflammasome): 100 to 500 nM

Cc1cc(-c2ccc(C(F)(F)F)cc2)nnc1O[C@@H]1CCCN(C)C1 [compound 178]
IC50 (IL-6): 1000 to 5000 nM
IC50 (NLRP3 inflammasome): > 1000 nM

Cc1cc(O[C@@H]2CCCN(C)C2)nnc1-c1ccc(F)cc1 [compound 179]
IC50 (IL-6): > 10000 nM
IC50 (NLRP3 inflammasome): > 1000 nM

Cc1cc(-c2ccc(F)cc2)nnc1O[C@@H]1CCCN(C)C1 [compound 180]
IC50 (IL-6): > 10000 nM
IC50 (NLRP3 inflammasome): > 1000 nM

Cc1cc(Cl)ccc1-c1nnc(O[C@@H]2CCCN(C)C2)cc1C [compound 181]
IC50 (IL-6): ≤ 1000 nM
IC50 (NLRP3 inflammasome): 500 to 1000 nM

Cc1cc(-c2ccc(C(F)(F)F)cc2)nnc1N[C@@H]1CCN(C)C1 [compound 182]
IC50 (IL-6): > 10000 nM
IC50 (NLRP3 inflammasome): 50 to 100 nM

Cc1cc(N[C@@H]2CCN(C)C2)nnc1-c1ccc(F)cc1 [compound 183]
IC50 (IL-6): > 10000 nM
IC50 (NLRP3 inflammasome): 100 to 500 nM

Cc1cc(N(C)[C@@H]2CCN(C)C2)nnc1-c1ccc(F)cc1 [compound 184]
IC50 (IL-6): 5000 to 10000 nM
IC50 (NLRP3 inflammasome): > 1000 nM

Cc1cc(N(C)[C@@H]2CCN(C)C2)nnc1-c1ccc(C(F)(F)F)cc1 [compound 185]
IC50 (IL-6): 1000 to 5000 nM
IC50 (NLRP3 inflammasome): > 1000 nM

Cc1cc(N[C@@H]2CCN(C)C2)nnc1-c1ccc(C(F)(F)F)cc1 [compound 186]
IC50 (IL-6): > 10000 nM
IC50 (NLRP3 inflammasome): ≤ 10 nM

Cc1cc(Cl)ccc1-c1nnc(N[C@@H]2CCN(C)C2)cc1C [compound 187]
IC50 (IL-6): > 10000 nM
IC50 (NLRP3 inflammasome): > 1000 nM

Cc1cccc(C(F)F)c1-c1ccc(N[C@@H]2CCCN(C)C2)nn1 [compound 189]
IC50 (IL-6): > 10000 nM
IC50 (NLRP3 inflammasome): > 1000 nM

Cc1cc(N[C@@H]2C[C@@H](F)CN(C(C)C)C2)nnc1-c1ccc(F)cc1 [compound 190]
IC50 (IL-6): > 10000 nM
IC50 (NLRP3 inflammasome): 50 to 100 nM

Cc1c(-c2ccc(C(F)(F)F)cc2)nnc(N[C@@H]2CCCN(C)C2)c1O [compound 191]
IC50 (IL-6): > 10000 nM
IC50 (NLRP3 inflammasome): 10 to 50 nM

CN1CCC[C@@H](Nc2cc(C(F)(F)F)c(-c3ccc(F)cc3)nn2)C1 [compound 192]
IC50 (IL-6): > 10000 nM
IC50 (NLRP3 inflammasome): ≤ 10 nM

Cc1cc(N(C2CC2)[C@@H]2CCCN(C)C2)nnc1-c1ccc(C(F)(F)F)cc1 [compound 193]
IC50 (IL-6): 5000 to 10000 nM
IC50 (NLRP3 inflammasome): ≤ 10 nM

CN1CCC[C@@H](Nc2cc(C(F)(F)F)c(-c3ccc(Cl)cc3)nn2)C1 [compound 194]
IC50 (IL-6): > 10000 nM
IC50 (NLRP3 inflammasome): ≤ 10 nM

CCN1CCC[C@@H](Nc2cc(C(F)(F)F)c(-c3ccc(F)cc3)nn2)C1 [compound 195]
IC50 (IL-6): > 10000 nM
IC50 (NLRP3 inflammasome): 10 to 50 nM

CN1CCC[C@@H](Nc2nnc(-c3ccc(Cl)cc3)cc2C(F)(F)F)C1 [compound 196]
IC50 (IL-6): 1000 to 5000 nM
IC50 (NLRP3 inflammasome): 500 to 1000 nM

CCN1CCC[C@@H](Nc2nnc(-c3ccc(F)cc3)cc2C(F)(F)F)C1 [compound 197]
IC50 (IL-6): > 10000 nM
IC50 (NLRP3 inflammasome): > 1000 nM

Cc1cc(C(F)(F)F)ccc1-c1nnc(N[C@@H]2CCCN(C)C2)cc1O [compound 198]
IC50 (IL-6): > 10000 nM
IC50 (NLRP3 inflammasome): 500 to 1000 nM

Cc1cc(C(F)F)ccc1-c1ccc(N[C@@H]2CCCN(C)C2)nn1 [compound 199]
IC50 (IL-6): > 10000 nM
IC50 (NLRP3 inflammasome): 50 to 100 nM

Cc1cc(Cl)ccc1-c1nnc(N[C@@H]2CCCN(C(C)C)C2)cc1C [compound 200]
IC50 (IL-6): > 10000 nM
IC50 (NLRP3 inflammasome): ≤ 10 nM

CCN1CCC[C@@H](Nc2cc(C)c(-c3ccc(Cl)cc3C)nn2)C1 [compound 201]
IC50 (IL-6): > 10000 nM
IC50 (NLRP3 inflammasome): ≤ 10 nM

Cc1cc(N(C)[C@@H]2CCCN(C)C2)nnc1-c1ccc(Cl)cc1 [compound 202]
IC50 (IL-6): > 10000 nM
IC50 (NLRP3 inflammasome): 100 to 500 nM

Cc1cc(N[C@@H]2CCCN(C)C2)nnc1-c1ccc(F)cc1C(F)F [compound 203]
IC50 (IL-6): > 10000 nM
IC50 (NLRP3 inflammasome): 10 to 50 nM

Cc1cc(Cl)ccc1-c1nnc(N(C)[C@@H]2CCCN(C)C2)cc1C [compound 204]
IC50 (IL-6): > 10000 nM
IC50 (NLRP3 inflammasome): 500 to 1000 nM

Cc1cc(O[C@@H]2CCCN(C)C2)nnc1-c1ccc(Cl)cc1 [compound 210]
IC50 (IL-6): > 10000 nM
IC50 (NLRP3 inflammasome): 100 to 500 nM
